Reference: patent publication US8900720B2, “Multi-functional wood preservatives based on a borate/fatty acid combination” (Summerdale, Inc, priority 2010, dated 2014)

System: mold fungi
Assay: Moldicide assay on treated southern yellow pine stakes (ASTM D4445-91, ASTM D3273-00)
Format: cell-based
Settings: dip-treated stakes, relative to the water control
Procedure: All moldicide assays were conducted via ASTM standard D4445-91 (1998) and ASTM D3273-00 (1986).
Six groups of southern yellow pine stakes (12 replicates) were dip-treated (30 seconds) with treatments 3-1 through 3-6, inoculated with mold spores, incubated, and examined after 12 weeks (Table 3).
Six groups of southern yellow pine stakes (12 replicates) were dip-treated (30 seconds) with treatments 4-1 through 4-6, inoculated with mold spores, incubated, and examined after 12 weeks.

SMILES | moldicide activity (in words)
O.O.O.O.O=BOB1OB(OB=O)OB2OB([O-])OB([O-])OB(O1)O2.[Na+].[Na+] [DOT, disodium octaborate tetrahydrate] | no moldicide activity
OB(O)O [Boric acid, boric acid] | no moldicide activity
